Experimental data taken from PMC8112869, “Therapeutic inhibition of keratinocyte TRPV3 sensory channel by local anesthetic dyclonine” (eLife, 2021).

Target: T1, TRPV3 (Mus musculus, UniProt Q8K424)
T1 construct: expressed in transfected cells; host or cells: HEK 293T
T1 sequence (Q8K424 1-791): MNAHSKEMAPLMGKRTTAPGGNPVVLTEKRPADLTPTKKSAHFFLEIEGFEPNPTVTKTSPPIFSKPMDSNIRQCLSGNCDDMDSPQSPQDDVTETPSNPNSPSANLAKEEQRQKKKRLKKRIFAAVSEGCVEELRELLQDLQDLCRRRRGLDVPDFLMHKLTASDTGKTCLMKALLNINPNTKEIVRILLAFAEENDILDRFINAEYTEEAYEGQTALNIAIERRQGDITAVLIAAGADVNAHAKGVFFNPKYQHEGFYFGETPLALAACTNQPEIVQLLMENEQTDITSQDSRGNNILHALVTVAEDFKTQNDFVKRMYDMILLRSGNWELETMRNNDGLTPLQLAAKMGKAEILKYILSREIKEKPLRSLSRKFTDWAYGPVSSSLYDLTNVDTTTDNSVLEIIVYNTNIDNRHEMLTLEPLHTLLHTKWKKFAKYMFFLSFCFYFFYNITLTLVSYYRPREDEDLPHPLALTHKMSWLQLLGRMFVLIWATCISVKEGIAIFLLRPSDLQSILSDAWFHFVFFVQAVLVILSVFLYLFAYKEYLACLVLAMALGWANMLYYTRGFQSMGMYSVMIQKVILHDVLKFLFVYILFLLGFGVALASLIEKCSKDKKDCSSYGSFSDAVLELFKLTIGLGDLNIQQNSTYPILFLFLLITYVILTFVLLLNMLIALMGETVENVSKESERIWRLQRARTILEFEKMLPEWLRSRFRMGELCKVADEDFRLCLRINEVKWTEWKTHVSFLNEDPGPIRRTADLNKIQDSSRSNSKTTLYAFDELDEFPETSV
Experiment: Heat-activated TRPV3 currents (infrared laser temperature jump) in HEK 293T cells
Assay type: cell-based
Description: Conventional whole-cell and excised patch-clamp recording methods were used. For the recombinant expressing system, green fluorescent EGFP was used as a surface marker for gene expression. Recording pipettes were pulled from borosilicate glass capillaries (World Precision Instruments) and fire-polished to a resistance between 2 and 4 MΩ when filled with internal solution containing (in mM) 140 CsCl, 2.0 MgCl2, 5 EGTA, and 10 HEPES, pH 7.4 (adjusted with CsOH). Bath solution contained (in mM): 140 NaCl, 5 KCl, 3 EGTA, and 10 HEPES, pH 7.4 adjusted with NaOH. […] For a subset of recordings, currents were amplified using an Axopatch 200B amplifier (Molecular Devices, Sunnyvale, CA) and recorded through a BNC-2090/MIO acquisition system (National Instruments, Austin, TX) using QStudio developed by Dr. Feng Qin at State University of New York at Buffalo. […] As determined by the conductance tests, the solution around a patch under study was fully controlled by the application of a flow rate of 100 μl/min or greater. […]
Constant temperature steps were generated by irradiating the tip of an open pipette and using the current of the electrode as the readout for feedback control. […]

Hill coefficient nH: 1.9 ± 0.54
Compound: CCCCOc1ccc(C(=O)CCN2CCCCC2)cc1 [dyclonine]
